Assay results as given in US20260200943A1, “COMPOUNDS FOR TREATING CANCER” (Genesis Therapeutics, Inc., priority 2022, published 2026).

How the values were obtained:
Assay type in all cases: biochemical
[1] = biological target: T1, CDK9/CyclinT1 (Homo sapiens, UniProt P50750); test: CDK9/CyclinT1 Mobility Shift Assay (Caliper, Table B); design: Wild-type, full length CDK9 in complex with wildtype, CyclinT1 (1-259): Biortus Cat #BP480/792/691; purchased Biortus BP480/792/691; details: read-out: CDK9/Cyclin T1 Caliper Ki: Average Ki
Procedure: 10 nL of 2000× compound in 100% DMSO is added to a 384-well polypropylene assay plate. 15 μL of 1.3×CDK9/T1 and 1.3× fluorescent substrate (Wild-type, full length CDK9 in complex with wildtype, CyclinT1 (1-259): Biortus Cat #BP480/792/691 and FL-Peptide 34: PerkinElmer Cat #760643) diluted in kinase buffer (50 mM Hepes, 0.01% Brij-35, 10 mM MgCl2, 1 mM EGTA, 0.05% BSA, and 2 mM DTT) is added to the plates on top of the compound, mixed, and pre-incubated for 30 minutes at room temperature. The fluorescently labeled peptide substrate is phosphorylated by CDK9/T1 upon ATP hydrolysis. Following the incubation, 5 μL of 4×ATP diluted in kinase buffer is added to the plate to initiate the reaction. Following the 30-minute incubation, the reaction is stopped by adding 75 μL of stopping buffer containing 0.5 M EDTA.
(§1) The assay plate is then read on a Lab Chip EZ Reader which separates the fluorescently labeled substrate and product peptides through a mobility difference. The phosphorylation of the substrate imparts a negative charge, which allows differences in separation as both are pulled through the microfluidic chip. The ratio of substrate and product values are used to generate percent conversion. These raw percent conversion values are normalized to calculate percent inhibition, which are fit to a four-parameter logistic curve and IC50 values are calculated. IC50 values are converted to Ki using substrate, Kmapp values, and the Cheng-Prusoff equation.
Target sequence in this assay (P50750 whole entry): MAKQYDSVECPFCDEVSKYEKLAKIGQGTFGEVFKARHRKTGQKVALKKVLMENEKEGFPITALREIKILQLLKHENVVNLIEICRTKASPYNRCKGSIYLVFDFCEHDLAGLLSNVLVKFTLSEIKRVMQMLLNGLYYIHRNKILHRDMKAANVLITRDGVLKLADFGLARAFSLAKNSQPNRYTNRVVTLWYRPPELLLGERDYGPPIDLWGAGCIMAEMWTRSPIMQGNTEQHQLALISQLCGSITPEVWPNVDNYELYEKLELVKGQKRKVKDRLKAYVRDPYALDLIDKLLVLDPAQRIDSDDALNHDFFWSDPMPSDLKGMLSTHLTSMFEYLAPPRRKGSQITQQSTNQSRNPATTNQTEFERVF
Target sequence in this assay (O60563 1-259 partner limits assumed): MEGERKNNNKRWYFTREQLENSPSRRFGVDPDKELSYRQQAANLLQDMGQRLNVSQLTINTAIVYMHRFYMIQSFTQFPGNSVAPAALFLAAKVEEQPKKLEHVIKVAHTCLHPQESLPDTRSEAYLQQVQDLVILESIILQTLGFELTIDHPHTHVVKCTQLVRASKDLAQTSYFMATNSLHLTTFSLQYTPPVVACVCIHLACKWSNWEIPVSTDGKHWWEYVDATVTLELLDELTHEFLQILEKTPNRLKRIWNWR

[2] = biological target: T2, CDK1/CyclinB1 (Homo sapiens, UniProt P06493); test: CDK1/CyclinB1 ChEF Assay (Table A); details: read-out: CDK1/CCNB1 ChEF Ki: Average Ki;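 further: Ki reported in nM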
T2 construct: Wild-type, full length CDK1 in complex with wildtype, full length CyclinB1: Carna Cat #04-102; purchased Carna 04-102
Procedure: 500 nL of 50× compound in 100% DMSO is added to a 384-well low volume, white assay plate. 19.5 μL of 1.3×CDK1/CyclinB1 (Wild-type, full length CDK1 in complex with wildtype, full length CyclinB1: Carna Cat #04-102) diluted in assay buffer (50 mM Hepes, 0.01% Brij-35, 10 mM MgCl2, 0.5 mM EGTA, 1% Glycerol, and 1.2 mM DTT) is added to the plates on top of the compound and pre-incubated for 30 minutes at room temperature. Following the incubation, 5 μL of 5×Sox-chromophore (CSox) labeled peptide substrate (AQT0297, AssayQuant) & ATP diluted in assay buffer is added to the plate to initiate the reaction. The assay is incubated at room temperature for 30 min after initiation. The CSox peptide substrate is phosphorylated by CDK1/B1 upon ATP hydrolysis.
(§2) The fluorescent intensity measurement of the assay plate for all assays described above is read on a microplate reader once the assay is initiated and again at the completion of the assay. Phosphorylation of the CSox-based peptide substrate sensor results in an immediate increase in fluorescence. These raw fluorescence intensity values are normalized to calculate percent inhibition, which are fit to a four-parameter logistic curve and IC50 values are calculated. IC50 values are converted to Ki using substrate, KM^app values, and the Cheng-Prusoff equation.

[3] = biological target: T1, CDK9/CyclinT1; test: CDK9/CyclinT1 ChEF Assay (Table A); design: Wild-type, full length CDK9 in complex with wildtype, full length CyclinT1: Invitrogen Cat #PV4131; purchased Invitrogen PV4131; details: 10xKm, read-out: CDK9/CCNT1 ChEF 10xKm Ki: Average Ki
Procedure: 500 nL of 50× compound in 100% DMSO is added to a 384-well low volume, white assay plate. 19.5 μL of 1.3×CDK9/CyclinT1 (Wild-type, full length CDK9 in complex with wildtype, full length CyclinT1: Invitrogen Cat #PV4131) diluted in assay buffer (50 mM Hepes, 0.01% Brij-35, 10 mM MgCl2, 0.5 mM EGTA, 1% Glycerol, and 1.2 mM DTT) is added to the plates on top of the compound and pre-incubated for 30 minutes at room temperature. Following the incubation, 5 μL of 5×Sox-chromophore (CSox) labeled peptide substrate (AQT0449, AssayQuant) & ATP diluted in assay buffer is added to the plate to initiate the reaction. The assay is incubated at room temperature for 120 min after initiation. The CSox peptide substrate is phosphorylated by CDK9/T1 upon ATP hydrolysis.
as §2
Target sequence in this assay (P50750 whole entry): as the sequence (P50750 whole entry) above
Target sequence in this assay (O60563 whole entry partner): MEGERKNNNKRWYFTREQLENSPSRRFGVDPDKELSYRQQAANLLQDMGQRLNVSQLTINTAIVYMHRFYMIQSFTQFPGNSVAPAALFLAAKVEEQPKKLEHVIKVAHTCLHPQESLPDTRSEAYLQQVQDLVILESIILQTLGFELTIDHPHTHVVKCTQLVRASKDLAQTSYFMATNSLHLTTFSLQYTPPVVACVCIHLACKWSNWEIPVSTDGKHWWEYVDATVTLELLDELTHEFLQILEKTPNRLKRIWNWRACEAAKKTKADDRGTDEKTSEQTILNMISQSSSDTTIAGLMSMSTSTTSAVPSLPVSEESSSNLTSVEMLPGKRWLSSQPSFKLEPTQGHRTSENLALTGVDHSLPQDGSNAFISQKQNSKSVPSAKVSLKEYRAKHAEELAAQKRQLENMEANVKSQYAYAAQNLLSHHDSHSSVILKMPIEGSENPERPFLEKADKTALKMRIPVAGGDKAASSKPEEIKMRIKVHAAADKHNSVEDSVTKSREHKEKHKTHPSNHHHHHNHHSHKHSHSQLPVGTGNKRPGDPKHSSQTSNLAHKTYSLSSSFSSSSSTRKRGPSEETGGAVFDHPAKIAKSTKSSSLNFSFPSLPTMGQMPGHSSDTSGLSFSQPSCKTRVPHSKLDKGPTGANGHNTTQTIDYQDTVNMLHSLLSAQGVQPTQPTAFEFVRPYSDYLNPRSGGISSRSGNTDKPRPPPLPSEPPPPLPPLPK

[4] = biological target: T2, CDK1/CyclinB1; test: CDK1/Cyclin B1 Mobility Shift Assay (Caliper, Table B); details: read-out: CDK1/CCNB1 Caliper Ki: Average Ki
Procedure: 10 nL of 2000× compound in 100% DMSO is added to a 384-well polypropylene assay plate. 15 μL of 1.3×CDK1/B1 and 1.3× fluorescent substrate (Wild-type, full length CDK1 in complex with wildtype, full length CyclinB1: Carna Cat #04-102 and FL-Peptide 29: PerkinElmer Cat #760429) diluted in kinase buffer (50 mM Hepes, 0.01% Brij-35, 10 mM MgCl2, 1 mM EGTA, 0.05% BSA, and 2 mM DTT) is added to the plates on top of the compound, mixed, and pre-incubated for 30 minutes at room temperature. The fluorescently labeled peptide substrate is phosphorylated by CDK1/B1 upon ATP hydrolysis. Following the incubation, 5 μL of 4×ATP diluted in kinase buffer is added to the plate to initiate the reaction. Following the 30-minute incubation, the reaction is stopped by adding 75 μL of stopping buffer containing 0.5 M EDTA.
as §1

T2 sequence (P06493 whole entry): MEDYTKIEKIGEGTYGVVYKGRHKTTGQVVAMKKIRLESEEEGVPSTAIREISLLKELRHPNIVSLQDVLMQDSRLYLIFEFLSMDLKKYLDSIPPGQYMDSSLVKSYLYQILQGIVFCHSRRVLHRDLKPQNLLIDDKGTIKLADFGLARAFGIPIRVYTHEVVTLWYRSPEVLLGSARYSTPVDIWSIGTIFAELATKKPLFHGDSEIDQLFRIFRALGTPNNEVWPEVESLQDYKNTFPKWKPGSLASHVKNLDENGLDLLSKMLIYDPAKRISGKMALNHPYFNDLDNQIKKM
T2 sequence (P14635 whole entry partner): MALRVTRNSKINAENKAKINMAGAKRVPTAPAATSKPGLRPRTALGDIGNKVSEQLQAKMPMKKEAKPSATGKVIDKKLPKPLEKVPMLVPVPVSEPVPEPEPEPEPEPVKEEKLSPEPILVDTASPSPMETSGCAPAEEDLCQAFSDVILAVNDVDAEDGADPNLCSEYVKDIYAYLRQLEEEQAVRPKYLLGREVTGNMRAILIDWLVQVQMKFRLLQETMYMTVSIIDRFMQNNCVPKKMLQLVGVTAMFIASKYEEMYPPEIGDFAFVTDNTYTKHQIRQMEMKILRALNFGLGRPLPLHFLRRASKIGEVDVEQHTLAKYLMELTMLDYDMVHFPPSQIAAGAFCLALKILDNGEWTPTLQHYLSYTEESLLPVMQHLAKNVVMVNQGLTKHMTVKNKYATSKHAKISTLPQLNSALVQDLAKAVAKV

| Structure (SMILES) | Ki [1] | Ki [2] | Ki [3] | Ki [4] |
| --- | --- | --- | --- | --- |
| NS(=O)(=O)c1ccc2cc1OCCCCCNC(=O)O[C@@H]1CC[C@@H](C1)c1cnc(nc1)N2 (stereo in doubt) [Compound 105, rel-(2S,5R)-7-oxo-6,14-dioxa-8,20,22,25-tetraazatetracyclo[19.2.2.1^{2,5}.1^{15,19}]heptacosa-1(23),15,17,19(26),21,24-hexaene-16-sulfonamide] | ≥ 100 nM | – | – | – |
| O=C1NCCCCCn2cc(cn2)S(=O)(=O)N2CCC(CC2)Nc2cc([nH]n2)[C@H]2CC[C@H](C2)O1 [Compound 96, (1^1S,1^3R,2^4Z,6^4E)-2^1H,6^1H-14-oxa-5-thia-3,12-diaza-4(4,1)-piperidina-2(5,3),6(4,1)-dipyrazola-1(1,3)-cyclopentanacyclotetradecaphan-13-one 5,5-dioxide] | ≥ 100 nM | 25 to 100 nM | 25 to 100 nM | ≥ 100 nM |
| O=C1NCCCCCCn2cc(cn2)S(=O)(=O)N2CCC(CC2)Nc2cc([nH]n2)[C@H]2CC[C@H](C2)O1 [Compound 97, (1^1S,1^3R,2^4Z,6^4E)-2^1H,6^1H-15-oxa-5-thia-3,13-diaza-4(4,1)-piperidina-2(5,3),6(4,1)-dipyrazola-1(1,3)-cyclopentanacyclopentadecaphan-14-one 5,5-dioxide] | ≥ 100 nM | 1 to 25 nM | ≥ 100 nM | 1 to 25 nM |
| O=C1NCCCCCCCNS(=O)(=O)c2ccc(c(F)c2)Nc2cc([nH]n2)[C@H]2CC[C@H](C2)O1 [Compound 92] | 25 to 100 nM | < 1 nM | ≥ 100 nM | < 1 nM |
| O=C1NCCCn2cc(cn2)S(=O)(=O)N2CCC(CC2)Nc2cc([nH]n2)[C@H]2CC[C@H](C2)O1 [Compound 95, (1^1S, 1^3R,2^4Z,6^4E)-2^1H,6^1H-12-oxa-5-thia-3,10-diaza-4(4,1)-piperidina-2(5,3),6(4,1)-dipyrazola-1(1,3)-cyclopentanacyclododecaphan-11-one 5,5-dioxide] | ≥ 100 nM | ≥ 100 nM | ≥ 100 nM | ≥ 100 nM |
| CN1CCNC(=O)O[C@@H]2CC[C@@H](C2)c2cc(n[nH]2)Nc2ccc(cc2F)S(=O)(=O)NCC1 [Compound 100, (1^1S, 1^3R,Z)-4^2-fluoro-9-methyl-2^1H-14-oxa-5-thia-3,6,9,12-tetraaza-2(5,3)-pyrazola-4(1,4)-benzena-1(1,3)-cyclopentanacyclotetradecaphan-13-one 5,5-dioxide] | ≥ 100 nM | 25 to 100 nM | ≥ 100 nM | ≥ 100 nM |

Further lines, results first:

| Ki [1] | Ki [2] | Ki [3] | Ki [4] | Structure (SMILES) |
| --- | --- | --- | --- | --- |
| 25 to 100 nM | 1 to 25 nM | ≥ 100 nM | 25 to 100 nM | O=C1NCCCCCNS(=O)(=O)c2ccc(c(F)c2)Nc2cc([nH]n2)[C@H]2CC[C@H](C2)O1 [Compound 90, (1^1S,1^3R,Z)-4^2-fluoro-2^1H-14-oxa-5-thia-3,6,12-triaza-2(5,3)-pyrazola-4(1,4)-benzena-1(1,3)-cyclopentanacyclotetradecaphan-13-one 5,5-dioxide] |
| ≥ 100 nM | 25 to 100 nM | 25 to 100 nM | ≥ 100 nM | CC1(C)CCCNS(=O)(=O)c2ccc(c(F)c2)Nc2cc([nH]n2)[C@H]2CC[C@H](C2)OC(=O)N1 [Compound 101, (1^1S,1^3R,Z)-4^2-fluoro-10,10-dimethyl-2^1H-13-oxa-5-thia-3,6,11-triaza-2(5,3)-pyrazola-4(1,4)-benzena-1(1,3)-cyclopentanacyclotridecaphan-12-one 5,5-dioxide] |
| ≥ 100 nM | ≥ 100 nM | 25 to 100 nM | ≥ 100 nM | O=C1NCCCNS(=O)(=O)c2ccc(c(F)c2)Nc2cc([nH]n2)[C@H]2CC[C@H](C2)O1 [Compound 98, (1^1S, 1^3R,Z)-4^2-fluoro-2^1H-12-oxa-5-thia-3,6, 10-triaza-2(5,3)-pyrazola-4(1,4)-benzena-1(1,3)-cyclopentanacyclododecaphan-11-one 5,5-dioxide] |
| 1 to 25 nM | 1 to 25 nM | ≥ 100 nM | 1 to 25 nM | O=C1NCCOCCNS(=O)(=O)c2ccc(c(F)c2)Nc2cc([nH]n2)[C@H]2CC[C@H](C2)O1 [Compound 89, (1^1S,1^3R,Z)-4^2-Fluoro-2^1H-9,14-dioxa-5-thia-3,6,12-triaza-2(5,3)-pyrazola-4(1,4)-benzena-1(1,3)-cyclopentanacyclotetradecaphan-13-one 5,5-dioxide] |
| 25 to 100 nM | 1 to 25 nM | ≥ 100 nM | 1 to 25 nM | O=C1NCCCCCCNS(=O)(=O)c2ccc(c(F)c2)Nc2cc([nH]n2)[C@H]2CC[C@H](C2)O1 [Compound 91, (1^1S,1^3R,Z)-4^2-fluoro-2^1H-15-oxa-5-thia-3,6,13-triaza-2(5,3)-pyrazola-4(1,4)-benzena-1(1,3)-cyclopentanacyclopentadecaphan-14-one 5,5-dioxide] |
| ≥ 100 nM | 1 to 25 nM | ≥ 100 nM | 25 to 100 nM | O=C1NCC=CCNS(=O)(=O)c2ccc(c(F)c2)Nc2cc([nH]n2)[C@H]2CC[C@H](C2)O1 [Compound 102, (1^1S,1^3R,2^4Z)-4^2-fluoro-2^1H-13-oxa-5-thia-3,6,11-triaza-2(5,3)-pyrazola-4(1,4)-benzena-1(1,3)-cyclopentanacyclotridecaphan-8-en-12-one 5,5-dioxide] |
| ≥ 100 nM | 1 to 25 nM | ≥ 100 nM | 1 to 25 nM | O=C1NCCCCNS(=O)(=O)c2ccc(c(F)c2)Nc2cc([nH]n2)[C@H]2CC[C@H](C2)O1 [Compound 99, (1^1S, 1^3R,Z)-4^2-fluoro-2^1H-13-oxa-5-thia-3,6,11-triaza-2(5,3)-pyrazola-4(1,4)-benzena-1(1,3)-cyclopentanacyclotridecaphan-12-one 5,5-dioxide] |
